Literature values as cited in US20080039428A1, “Antiretroviral combination therapy” (Panacos Pharmaceuticals, Inc., priority 2006, published 2008).

Tested on: HIV

In the case of `C=C(C)[C@@H]1CC[C@]2(C(=O)O)CC[C@]3(C)[C@H](CC[C@@H]4[C@@]5(C)CC[C@H](OC(=O)CC(C)(C)C(=O)O)C(C)(C)[C@@H]5CC[C@]43C)[C@@H]12` [DSB, 3-O-(3′,3′-dimethylsuccinyl)betulinic acid], the “inhibition of HIV replication” value is listed as “potent inhibitor of HIV replication”.
